Source: US7691877B2, “Pharmaceuticals” (priority 2006, dated 2010)
pEC50: −log10 of the molar value.

Experiments:
[1] = system: all other known Toll-like Receptors; test: Selectivity for TLR7 over other Toll-like Receptors
[2] = system: MEK, CDK1, CDK2, JNK, MSK, MSK-1, SGK, AMPK, MLCK, CHK-2, PDE3, PDE4 and PDE5; test: Selectivity for TLR7 over kinases and phosphodiesterase enzymes; format: biochemical
TLR7 receptor = molecular target: T1, TLR7 receptor (Homo sapiens, UniProt Q9NYK1); test: PBL/HCV replicon bioassay; format: cell-based; conditions: concentration applied to PBL (24 h) giving 50% reduction of HCV replicon levels (luciferase) after transfer of PBL culture medium to Huh-7 replicon cells (48 h)
T1 construct: PBL contain as a subpopulation plasmacytoid dendritic cells which are the natural interferon producing cells; endogenous in cells; host or cells: peripheral blood lymphocytes (PBL), containing plasmacytoid dendritic cells
T1 sequence (Q9NYK1 27-1049): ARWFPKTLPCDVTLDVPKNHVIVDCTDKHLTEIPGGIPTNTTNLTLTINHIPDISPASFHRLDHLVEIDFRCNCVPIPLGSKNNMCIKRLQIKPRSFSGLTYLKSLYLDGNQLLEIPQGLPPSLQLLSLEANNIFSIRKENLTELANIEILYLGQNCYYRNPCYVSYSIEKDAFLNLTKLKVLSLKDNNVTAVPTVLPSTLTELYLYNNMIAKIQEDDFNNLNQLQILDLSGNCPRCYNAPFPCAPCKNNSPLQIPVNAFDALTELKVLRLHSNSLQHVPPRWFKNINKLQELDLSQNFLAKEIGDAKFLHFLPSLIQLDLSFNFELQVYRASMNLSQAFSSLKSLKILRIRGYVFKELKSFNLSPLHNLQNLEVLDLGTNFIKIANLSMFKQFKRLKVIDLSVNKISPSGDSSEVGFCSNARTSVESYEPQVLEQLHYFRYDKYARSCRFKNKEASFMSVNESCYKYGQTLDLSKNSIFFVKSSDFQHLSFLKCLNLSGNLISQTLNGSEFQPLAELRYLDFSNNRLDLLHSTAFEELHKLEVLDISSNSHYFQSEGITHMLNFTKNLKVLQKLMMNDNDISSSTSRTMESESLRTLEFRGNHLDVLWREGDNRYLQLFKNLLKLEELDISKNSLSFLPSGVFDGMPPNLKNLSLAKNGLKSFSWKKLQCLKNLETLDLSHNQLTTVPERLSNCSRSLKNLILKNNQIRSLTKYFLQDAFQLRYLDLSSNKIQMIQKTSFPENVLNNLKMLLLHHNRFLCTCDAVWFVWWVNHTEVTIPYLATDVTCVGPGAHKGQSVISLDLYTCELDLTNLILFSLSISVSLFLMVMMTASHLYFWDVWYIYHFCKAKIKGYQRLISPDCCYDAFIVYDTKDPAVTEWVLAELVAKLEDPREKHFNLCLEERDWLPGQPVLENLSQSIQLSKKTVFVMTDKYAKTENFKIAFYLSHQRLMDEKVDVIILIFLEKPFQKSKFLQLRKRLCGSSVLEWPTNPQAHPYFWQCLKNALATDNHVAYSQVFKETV
Experimental: PBL contain as a subpopulation plasmacytoid dendritic cells which are the natural interferon producing cells during an infection and as such are an excellent model in which to profile interferon inducers. As an extremly sensitive antiviral bioassay, supernatant taken from PBL is assayed for antiviral activity in the HCV replicon system.
The HCV replicon (Huh-5-2[I389luc-ubi-neo-NS3-3′/ET]) is an in vitro model of HCV replication in which the luciferase reporter is incorporated into HCV sequences and stably maintained in the human hepatoma cell line Huh-7. The firefly luciferase reporter is expressed as a luciferase-ubiquitin-neomycin phosphotransferase fusion protein which is cleaved by host proteases to release luciferase. The replicon also contains an internal EMCV IRES, which drives translation of HCV NS3-5B polyprotein, which harbour cell culture adapted mutations to permit high cloning efficiency. […] Firefly luciferase activity is detected using a Bright-Glo™ Luciferase Assay System manufactured by Promega.
An initial 3 fold serial dilution series of compounds in 100% DMSO is prepared from stocks. The dilution series is then further diluted 100 fold with complete RPMI-FCS. The final concentration of DMSO in the assay is thus 0.1% and that of the test compound is 1/1000 in the 100% DMSO dilution series. PBL are prepared seeded at 5×10^5/well/90 μl into the previously prepared compound containing assay plates (96 well clear bottomed TC grade) and incubated for 24 h.
LucUbiNeo HCV replicon cells are seeded at 10^4/well/90 μl. These are incubated for 24 h. After 24 h, 10 μl of medium is transferred from the PBL assay plates to the HCV replicon plates and incubated for a further 48 h.

[3] = system: MAP (mitogen-activated protein kinase); test: Selectivity for TLR7 over MAP; format: biochemical
[4] = system: HCV replicon containing cells; test: Direct response of HCV replicon containing cells to TLR agonists; format: cell-based, human; conditions: applied directly to replicon cells, without PBL conditioned medium

SMILES | pEC50 (TLR7 receptor) | other results
Nc1nc(C2CC2)cc2c1[nH]c(=O)n2Cc1ccccc1 [Example 1, 4-Amino-1-benzyl-6-cyclopropyl-1,3-dihydro-imidazo[4,5-c]pyridin-2-one] | 6.03 | selectivity for the TLR7 receptor over all other known Toll-like Receptors [1]: selective; selectivity for the TLR7 receptor over MEK, CDK1, CDK2, JNK, MSK, MSK-1, SGK, AMPK, MLCK, CHK-2, PDE3, PDE4 and PDE5 [2]: selective
Cc1cc2c([nH]c(=O)n2Cc2ccccc2)c(N)n1 [Example 2, 4-Amino-1-benzyl-6-methyl-1,3-dihydro-imidazo[4,5-c]pyridin-2-one] | 5.81 | selectivity for the TLR7 receptor over all other known Toll-like Receptors [1]: selective; selectivity for the TLR7 receptor over MEK, CDK1, CDK2, JNK, MSK, MSK-1, SGK, AMPK, MLCK, CHK-2, PDE3, PDE4 and PDE5 [2]: selective
Cc1nc(N)c2[nH]c(=O)n(Cc3ccccc3)c2c1C [Example 3, 1-Benzyl-4-amino-6,7-dimethyl-1,3-dihydro-imidazo[4,5-c]Pyridin-2-one] | 6.58 | 
COC(=O)c1cc2c([nH]c(=O)n2Cc2ccccc2)c(N)n1 [Example 4, 4-Amino-1-benzyl-2-oxo-2,3-dihydro-1H-imidazo[4,5-c]pyridine-6-carboxylic acid methyl ester] | 6.30 | 
Nc1nc(-c2ncco2)cc2c1[nH]c(=O)n2Cc1ccccc1 [Example 12, 4-Amino-1-benzyl-6-oxazol-2-yl-1,3-dihydro-imidazo[4,5-c]pyridin-2-one] | 6.62 | selectivity for the TLR7 receptor over all other known Toll-like Receptors [1]: selective; selectivity for the TLR7 receptor over MAP (mitogen-activated protein kinase) [3]: selective; selectivity for the TLR7 receptor over MEK, CDK1, CDK2, JNK, MSK, MSK-1, SGK, AMPK, MLCK, CHK-2, PDE3, PDE4 and PDE5 [2]: selective
COCCOc1cc2c([nH]c(=O)n2Cc2ccccc2)c(N)n1 [Example 17, 4-Amino-1-benzyl-6-(2-methoxy-ethoxy)-1,3-dihydro-imidazo[4,5-c]pyridin-2-one] | 6.02 | 
CCc1coc(-c2cc3c([nH]c(=O)n3Cc3ccc(C)nc3)c(N)n2)n1 [Example 20, 4-Amino-6-(4-ethyl-oxazol-2-yl)-1-(6-methyl-pyridin-3-ylmethyl)-1,3-dihydro-imidazo[4,5-c]pyridin-2-one] | 6.15 | 
Nc1nc(-c2ncc[nH]2)cc2c1[nH]c(=O)n2Cc1ccccc1 [Example 21, 4-Amino-1-benzyl-6-(1H-imidazol-2-yl)-1,3-dihydro-imidazo[4,5-c]pyridin-2-one] | 6.67 | 
Nc1nc(-c2ccccc2F)cc2c1[nH]c(=O)n2Cc1ccccc1 [Example 22, 4-Amino-1-benzyl-6-(2-fluoro-phenyl)-1,3-dihydro-imidazo[4,5-c]pyridin-2-one] | 6.35 | 
CCCc1cc2c([nH]c(=O)n2Cc2ccccc2)c(N)n1 [Example 23] | 5.97 | 
CC(C)c1cc2c([nH]c(=O)n2Cc2ccccc2)c(N)n1 [Example 24] | 5.80 | 
Cc1cc2c([nH]c(=O)n2Cc2cccc(C(F)(F)F)c2)c(N)n1 [Example 25] | 6.00 | 
Cc1cc2c([nH]c(=O)n2Cc2cccc(F)c2)c(N)n1 [Example 27] | 6.34 | 
Nc1nc2c(c3c1[nH]c(=O)n3Cc1ccccc1)CCC2 [Example 31] | 5.49 | 
Nc1nc(-c2ccccn2)cc2c1[nH]c(=O)n2Cc1ccccc1 [Example 32] | 5.77 | 
COCCNCc1cc2c([nH]c(=O)n2Cc2ccccc2)c(N)n1 [Example 34] | 5.89 | 
CC(=O)c1cc2c([nH]c(=O)n2Cc2ccccc2)c(N)n1 [Example 36] | 6.43 | 

SMILES | pEC50 (TLR7 receptor) | other results
CCc1cc2c([nH]c(=O)n2Cc2ccccc2)c(N)n1 [Example 37] | 6.10 | 
Nc1nc(C(F)F)cc2c1[nH]c(=O)n2Cc1ccccc1 [Example 38] | 6.07 | 
N#Cc1cc2c([nH]c(=O)n2Cc2ccccc2)c(N)n1 [Example 39] | 5.66 | 
COCc1cc2c([nH]c(=O)n2Cc2ccccc2)c(N)n1 [Example 40] | 6.37 | 
COCCNc1cc2c([nH]c(=O)n2Cc2ccccc2)c(N)n1 [Example 49] | 5.66 | 
Nc1nccc2c1[nH]c(=O)n2Cc1ccccc1 [Example 50] | 5.71 | 
Nc1nc(C(F)(F)F)cc2c1[nH]c(=O)n2Cc1ccc(F)cc1 [Example 54] | 6.52 | 
COCCn1c(=O)[nH]c2c(N)nc(C(F)(F)F)cc21 [Example 55] | 5.70 | 
Nc1nc(C(F)(F)F)cc2c1[nH]c(=O)n2Cc1ccc(Cl)nc1 [Example 60] | 6.35 | 
Cc1nc(N)c2[nH]c(=O)n(Cc3ccc(F)cc3)c2c1C [Example 61] | 5.77 | 
Nc1nc(C(F)(F)F)cc2c1[nH]c(=O)n2Cc1ccc(Br)cc1 [Example 70] | 6.18 | 
Cc1ccc(Cn2c(=O)[nH]c3c(N)nc(-c4cnco4)cc32)cn1 [Example 78] | 7.00 | 
Cc1ccc(Cn2c(=O)[nH]c3c(N)nc(-c4ncno4)cc32)cn1 [Example 82] | 6.90 | 
Nc1nc(-n2cccn2)cc2c1[nH]c(=O)n2Cc1ccccc1 [Example 83] | 6.33 | 
Cc1cnn(-c2cc3c([nH]c(=O)n3Cc3ccccc3)c(N)n2)c1 [Example 86] | 6.26 | 
CC(C)Cn1cnc2c(N)nc3ccccc3c21 [Imiquimod] |  | direct response of HCV replicon containing cells to the TLR agonist [4]: do not respond directly
